According to ChEMBL document CHEMBL1152616, “The biological activity and metabolic stability of peptidic bifunctional compounds that are opioid receptor agonists and neurokinin-1 receptor antagonists with a cystine moiety” (Bioorg Med Chem, 2009):
Activity calls are given as the source filed them. The rule behind the calls is not given here. Positions of bridges follow the written chain, without caps; N, C: chain ends. Non-standard residues stand in square brackets, D forms with d. Residues, ends and D or L forms follow the SMILES beside them. *: point of attachment. NH(3,5-(CF3)2-benzyl) = FC(F)(F)c1cc(CN*)cc(C(F)(F)F)c1; Nle = CCCC[C@H](N)C(=O)O

Key:
[1] = target: Delta-type opioid receptor (Mus musculus, UniProt P32300); test: Agonist activity at delta opioid receptor in mouse vas deferens assessed as inhibition of electrically-stimulated contraction; assay type: functional, tissue-based
Chain of Delta-type opioid receptor (Mus musculus, UniProt P32300) (P32300 whole entry): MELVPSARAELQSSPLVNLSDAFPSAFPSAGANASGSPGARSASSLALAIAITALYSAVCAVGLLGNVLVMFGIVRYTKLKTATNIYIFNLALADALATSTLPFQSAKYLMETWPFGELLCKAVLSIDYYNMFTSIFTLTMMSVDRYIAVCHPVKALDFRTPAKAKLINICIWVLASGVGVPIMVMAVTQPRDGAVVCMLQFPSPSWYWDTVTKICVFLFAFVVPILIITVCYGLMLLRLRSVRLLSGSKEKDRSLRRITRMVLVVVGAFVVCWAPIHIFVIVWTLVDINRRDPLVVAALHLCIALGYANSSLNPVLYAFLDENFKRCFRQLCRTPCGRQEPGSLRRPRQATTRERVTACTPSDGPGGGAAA

Mu-type opioid receptor [2] = target: Mu-type opioid receptor (Cavia porcellus, UniProt P97266); test: Agonist activity at mu opioid receptor in guinea pig ileum assessed as inhibition of electrically-stimulated contraction; assay type: functional, tissue-based
Chain of Mu-type opioid receptor (Cavia porcellus, UniProt P97266) (P97266 whole entry): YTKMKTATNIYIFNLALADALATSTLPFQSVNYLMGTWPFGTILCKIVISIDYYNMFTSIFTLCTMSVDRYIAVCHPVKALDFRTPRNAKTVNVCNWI

Substance-P receptor [3] = target: Substance-P receptor (Rattus norvegicus, UniProt P14600); test: Displacement of [3H]substance P from rat NK1 receptor expressed in CHO cell membranes; parameters: species or system Membrane
Chain of Substance-P receptor (Rattus norvegicus, UniProt P14600) (P14600 whole entry): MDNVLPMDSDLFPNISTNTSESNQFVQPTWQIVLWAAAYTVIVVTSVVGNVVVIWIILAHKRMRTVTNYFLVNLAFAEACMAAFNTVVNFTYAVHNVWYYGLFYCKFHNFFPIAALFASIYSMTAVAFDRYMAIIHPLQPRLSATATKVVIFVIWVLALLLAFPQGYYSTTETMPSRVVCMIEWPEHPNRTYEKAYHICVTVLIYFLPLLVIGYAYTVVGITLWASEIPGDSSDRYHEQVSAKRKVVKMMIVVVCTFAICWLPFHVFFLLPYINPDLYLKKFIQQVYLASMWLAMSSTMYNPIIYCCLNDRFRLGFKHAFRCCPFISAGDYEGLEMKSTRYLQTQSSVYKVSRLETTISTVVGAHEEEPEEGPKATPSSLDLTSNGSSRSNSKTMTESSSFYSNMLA

[4] = target: Mu-type opioid receptor (Cavia porcellus) (UniProt P97266); test: Agonist activity at mu opioid receptor in guinea pig ileum assessed as inhibition of electrically-stimulated contraction at 1 uM; assay type: functional, tissue-based
Chain of Mu-type opioid receptor (Cavia porcellus) (P97266 whole entry): as the sequence (P97266 whole entry) above

[5] = target: T1, Delta-type opioid receptor (Homo sapiens, UniProt P41143); test: Displacement of [3H]DPDPE from human delta opioid receptor expressed in HN9.10 cells; assay type: cell-based
T1 sequence (P41143 whole entry): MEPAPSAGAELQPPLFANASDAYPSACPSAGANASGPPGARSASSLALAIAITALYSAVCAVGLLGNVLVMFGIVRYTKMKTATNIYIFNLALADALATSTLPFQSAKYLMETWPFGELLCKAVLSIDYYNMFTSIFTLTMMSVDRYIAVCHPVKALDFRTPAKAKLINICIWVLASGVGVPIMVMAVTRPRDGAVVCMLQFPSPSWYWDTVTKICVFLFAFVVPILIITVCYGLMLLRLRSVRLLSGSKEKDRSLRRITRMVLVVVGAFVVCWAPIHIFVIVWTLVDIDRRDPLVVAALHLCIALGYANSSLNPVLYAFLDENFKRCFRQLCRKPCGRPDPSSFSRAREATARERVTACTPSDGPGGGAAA

[6] = target: Mu-type opioid receptor (Cavia porcellus) (UniProt P97266); test: Antagonist activity at mu opioid receptor in guinea pig ileum assessed as effect on electrically-stimulated contraction at 1 uM; assay type: functional, tissue-based
Mu-type opioid receptor [7] = target: T2, Mu-type opioid receptor (Rattus norvegicus, UniProt P33535); test: Displacement of [3H]DAMGO from rat mu opioid receptor expressed in HN9.10 cells; assay type: cell-based
T2 sequence (P33535 whole entry): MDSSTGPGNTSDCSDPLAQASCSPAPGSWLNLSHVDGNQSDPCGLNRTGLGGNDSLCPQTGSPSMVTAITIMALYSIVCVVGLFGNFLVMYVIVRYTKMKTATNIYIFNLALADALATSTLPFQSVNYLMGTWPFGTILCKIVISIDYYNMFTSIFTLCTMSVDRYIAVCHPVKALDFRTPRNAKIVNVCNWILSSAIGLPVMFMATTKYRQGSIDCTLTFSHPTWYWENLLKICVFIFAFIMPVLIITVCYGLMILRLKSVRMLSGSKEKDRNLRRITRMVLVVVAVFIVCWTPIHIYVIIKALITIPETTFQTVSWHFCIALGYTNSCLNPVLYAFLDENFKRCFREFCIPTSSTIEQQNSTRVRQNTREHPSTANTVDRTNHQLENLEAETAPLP

Mu-type opioid receptor [8] = target: T2, Mu-type opioid receptor; test: Agonist activity at rat mu opioid receptor expressed in HN9.10 cells assessed as stimulation of [35S]GTPgammaS binding; assay type: functional, cell-based
[9] = target: Mu-type opioid receptor (Rattus norvegicus) (UniProt P33535); test: Agonist activity at rat mu opioid receptor expressed in HN9.10 cells assessed as stimulation of [35S]GTPgammaS binding relative to untreated basal control; assay type: functional, cell-based
Chain of Mu-type opioid receptor (Rattus norvegicus) (P33535 whole entry): as above

[10] = Half life in rat plasma at 37 degC; assay type: ADME, cell-free
[11] = target: T1, Delta-type opioid receptor; test: Agonist activity at human delta opioid receptor expressed in HN9.10 cells assessed as stimulation of [35S]GTPgammaS binding relative to untreated basal control; assay type: functional, cell-based
[12] = target: Substance-P receptor (Cavia porcellus) (UniProt P30547); settings: Ileum
Chain of Substance-P receptor (Cavia porcellus) (P30547 whole entry): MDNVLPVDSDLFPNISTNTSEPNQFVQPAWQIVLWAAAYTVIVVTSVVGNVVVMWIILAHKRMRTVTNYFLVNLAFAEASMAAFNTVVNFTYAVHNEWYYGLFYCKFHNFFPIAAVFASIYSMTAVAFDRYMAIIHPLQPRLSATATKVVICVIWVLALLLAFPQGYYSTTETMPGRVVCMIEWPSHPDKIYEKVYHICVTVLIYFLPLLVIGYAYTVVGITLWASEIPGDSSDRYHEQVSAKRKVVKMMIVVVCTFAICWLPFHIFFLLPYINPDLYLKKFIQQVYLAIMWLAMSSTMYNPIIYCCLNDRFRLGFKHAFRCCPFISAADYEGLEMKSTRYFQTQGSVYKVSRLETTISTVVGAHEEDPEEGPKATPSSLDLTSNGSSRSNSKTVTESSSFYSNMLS
Description: Antagonist activity at NK1 receptor in guinea pig ileum assessed as inhibition of substance P-induced muscle contraction in presence of naloxone

Substance-P receptor [13] = target: Substance-P receptor (Homo sapiens, UniProt P25103); test: Displacement of [3H]substance P from human NK1 receptor expressed in CHO cell membranes
Chain of Substance-P receptor (Homo sapiens, UniProt P25103) (P25103 whole entry): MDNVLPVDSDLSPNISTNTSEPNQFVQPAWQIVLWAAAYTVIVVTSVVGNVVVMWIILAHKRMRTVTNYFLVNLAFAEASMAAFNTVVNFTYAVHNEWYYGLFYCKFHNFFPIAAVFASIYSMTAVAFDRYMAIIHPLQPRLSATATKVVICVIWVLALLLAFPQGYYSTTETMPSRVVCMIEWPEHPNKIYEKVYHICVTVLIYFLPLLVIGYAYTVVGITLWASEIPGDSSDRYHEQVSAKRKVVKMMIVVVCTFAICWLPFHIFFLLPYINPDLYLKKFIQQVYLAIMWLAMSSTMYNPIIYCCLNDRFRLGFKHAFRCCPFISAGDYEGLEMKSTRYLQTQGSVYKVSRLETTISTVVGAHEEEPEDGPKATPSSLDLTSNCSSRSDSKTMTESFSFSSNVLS

[14] = target: T1, Delta-type opioid receptor; test: Agonist activity at human delta opioid receptor expressed in HN9.10 cells assessed as stimulation of [35S]GTPgammaS binding; assay type: functional, cell-based
[15] = Metabolic stability in rat plasma assessed as parent compound remaining at 37 degC after 24 hrs; assay type: ADME, cell-free; settings: read-out: Stability

Row | SMILES | IC50 [1] [nM] | IC50 (Mu-type opioid receptor [2]) [nM] | IC50 (Substance-P receptor [3]) [nM] | inhibition [4] [%] | IC50 [5] [nM] | Activity [6] | IC50 (Mu-type opioid receptor [7]) [nM] | EC50 (Mu-type opioid receptor [8]) [nM] | Emax [9] [%] | half-life [10] [h] | Emax [11] [%] | Ke [12] [nM] | IC50 (Substance-P receptor [13]) [nM] | EC50 ([14]; read-out: pEC50 (converted)) [nM] | remaining at 24 h [15] [%] | EC50 ([14]; read-out: EC50) [nM]
1 | CSCC[C@H](NC(=O)[C@H](Cc1ccccc1)NC(=O)CNC(=O)[C@@H](C)NC(=O)[C@@H](N)Cc1ccc(O)cc1)C(N)=O | 36 | 45 |  |  |  |  |  |  |  |  |  |  |  |  |  | 
2 | CC(C)C[C@H](NC(=O)[C@@H]1CCCN1C(=O)[C@@H]1CSSC[C@@H](NC(=O)[C@@H](N)Cc2ccc(O)cc2)C(=O)NCC(=O)N[C@@H](Cc2ccccc2)C(=O)N1)C(=O)N[C@@H](Cc1c[nH]c2ccccc12)C(=O)NCc1cc(C(F)(F)F)cc(C(F)(F)F)c1 |  |  | 1780 | 10 | 22.4 | Active | 427 |  |  |  |  |  |  |  |  | 
3 | CC(C)C[C@H](NC(=O)[C@@H]1CCCN1C(=O)[C@H]1CSSC[C@@H](NC(=O)[C@@H](N)Cc2ccc(O)cc2)C(=O)NCC(=O)N[C@@H](Cc2ccccc2)C(=O)N1)C(=O)N[C@@H](Cc1c[nH]c2ccccc12)C(=O)NCc1cc(C(F)(F)F)cc(C(F)(F)F)c1 |  |  | 138 |  | 15.5 |  | 115 |  |  |  |  |  |  |  |  | 
4 | CCCC[C@@H]1NC(=O)[C@H](Cc2ccccc2)NC(=O)CNC(=O)[C@H](NC(=O)[C@@H](N)Cc2ccc(O)cc2)CSSC[C@@H](C(=O)N[C@@H](Cc2c[nH]c3ccccc23)C(=O)NCc2cc(C(F)(F)F)cc(C(F)(F)F)c2)NC(=O)[C@@H]2CCCN2C1=O (H-Y[dC]GF[Nle]PCW-{NH(3,5-(CF3)2-benzyl)}; disulfide 2-7) |  | 1000 | 95.5 |  | 2.69 |  | 166 | 36 | 36 | > 6 | 11 | 2.2 | 0.186 | 0.0174 |  | 
5 | CCCC[C@@H]1NC(=O)[C@H](Cc2ccccc2)NC(=O)CNC(=O)[C@H](NC(=O)[C@@H](N)Cc2ccc(O)cc2)CSSC[C@H](C(=O)N[C@@H](Cc2c[nH]c3ccccc23)C(=O)NCc2cc(C(F)(F)F)cc(C(F)(F)F)c2)NC(=O)[C@@H]2CCCN2C1=O (H-Y[dC]GF[Nle]P[dC]W-{NH(3,5-(CF3)2-benzyl)}; disulfide 2-7) |  |  | 22.4 | 3 | 117 | Active | 316 | 22 | 9 | > 6 | 110 | 12 | 0.49 |  | 70 | 13
